One molecule from patent US20140127705A1, “METHOD FOR SCREENING SUBSTANCES HAVING WEIGHT-REGULATING ACTION” (priority 2011, published 2014) can be followed below.

For this assay, the system named is 3T3-L1 cells. The experiment in a line: Induction of adipocyte differentiation in 3T3-L1 cells, Oil Red O staining. The note with it: 10 μM LS-102 added at induction of differentiation (IBMX, dexamethasone, insulin) and again at the medium change, DMSO control, microscope (FIG. 5). It counts as cell-based. How it is done:
3T3-L1 cells were cultured for 3 days after reaching confluence in DMEM (10% FBS, High Glucose). Differentiation was induced by adding 500 μM IBMX, 1 μM dexamethasone and 5 μg/ml of insulin. 10 μM LS-102 (synoviolin ubiquitination activity inhibitor) or DMSO were added at the same time. After culturing for 3 days, the medium was replaced with medium containing 4 μg/ml of insulin followed by the addition of 10 μM LS-102 or DMSO. After again culturing for 3 days, the medium was replaced with DMEM (10% FES, High Glucose) followed by additionally culturing for 3 days. With respect to siRNA, 200 pmol of siRNA Syno770 was introduced using Lipofectamine 2000 two days prior to inducing differentiation.
After washing the 3T3-L1 cells with PBS(−), the cells were fixed with 10% formalin. The cells were then washed with PBS(−) and transferred to 60% isopropanol. The cells were stained for 20 minutes with 18 mg/ml of Oil Red O/Isopropanol and then washed with 60% isopropanol and PBS(−) followed by observing with a microscope.

For the molecule `CCNCCN(CC)c1nc(Nc2ccc3ncoc3c2)nc(N[C@@H](C)C2CCCCC2)n1` [LI102], the “number of differentiated adipocytes in comparison with the control” value is on record as “the number of differentiated adipocytes was lower in comparison with the control”.
